Values of other authors in US20260014110A1, “RETINOIC ACID-ALCOHOL AMINE COMPLEX, PREPARATION METHOD AND APPLICATION THEREOF” (NANJING INDETEK LABORATORY CO., LTD., priority 2022, published 2026).
≈ marks a conversion by molar mass, not a printed value. Like-named read-outs stand apart in the source and are kept apart here.

For `CC1=C(/C=C/C(C)=C/C=C/C(C)=C/C(=O)O)C(C)(C)CCC1` [retinoic acid], the “solubility in water” value (Chinese Pharmacopoeia 2020, volume II) is listed as “extremely difficult to dissolve in water” and the solubility in water (literature (Ascenso et al. 2011)) is listed as 1.06 µM (≈ 0.318 µg/mL).
